# Measured values as given in patent US12662478B2, “ATF6 modulators and uses thereof” (Altos Labs, Inc., priority 2019, dated 2026).
# Target: T1, ATF6 (Homo sapiens, UniProt P18850)
# T1 construct: endogenous in cells; host or cells: U2-OS (ATCC HTB-96) stably transduced with the Cignal Lenti ATF6 luc reporter (Qiagen #CLS-6031L)
# T1 sequence (P18850 1-670): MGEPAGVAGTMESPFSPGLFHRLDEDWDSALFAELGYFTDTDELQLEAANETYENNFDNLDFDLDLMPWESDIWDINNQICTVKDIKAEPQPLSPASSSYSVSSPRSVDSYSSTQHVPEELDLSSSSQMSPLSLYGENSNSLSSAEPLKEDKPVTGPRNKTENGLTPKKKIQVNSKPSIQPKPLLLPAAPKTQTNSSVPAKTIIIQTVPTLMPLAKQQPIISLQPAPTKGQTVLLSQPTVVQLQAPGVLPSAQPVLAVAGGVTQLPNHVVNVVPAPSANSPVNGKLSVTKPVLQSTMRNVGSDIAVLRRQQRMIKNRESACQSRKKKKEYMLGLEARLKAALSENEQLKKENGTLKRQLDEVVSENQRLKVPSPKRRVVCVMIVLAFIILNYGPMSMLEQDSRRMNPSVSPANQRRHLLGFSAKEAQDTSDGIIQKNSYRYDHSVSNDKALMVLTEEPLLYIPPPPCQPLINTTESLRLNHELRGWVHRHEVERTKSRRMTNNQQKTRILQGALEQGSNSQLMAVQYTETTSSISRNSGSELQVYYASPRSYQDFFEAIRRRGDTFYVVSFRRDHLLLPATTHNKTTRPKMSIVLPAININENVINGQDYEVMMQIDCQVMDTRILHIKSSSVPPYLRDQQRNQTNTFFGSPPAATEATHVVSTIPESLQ
# Experiment: ERSE ATF6-luciferase assay in presence of Tg-induced ER stress (U2-OS ATF6 TRE-luciferase reporter cells)
# Format: cell-based
# Conditions: in presence of ER stress (thapsigargin), Tg only = 100%; for activity at 1 µM / activity at 10 µM: U2OS, 8 h; for activity at 1 µM / ATF6 activity @ 1 μM [%]: 1 μM test compound; for activity at 10 µM / ATF6 activity @ 10 μM [%]: 10 μM test compound; for ATF6 activity @ 1 μM [%] / ATF6 activity @ 10 μM [%]: 8 hr
# Procedure: To understand how exemplary compounds of the invention modulate the activity of ATF6 in absence or presence of endoplasmic reticulum (ER) stress, a Human bone osteosarcoma (U2-OS)-based TRE-luciferase reporter stable cell line was generated to determine the modulation of transcription of ATF6 target genes.
# U2-OS cells were obtained from the American Type Culture Collection (ATCC HTB-96, ATCC Manassas, VA) and were cultured with growing medium containing Dulbecco's Modified Eagle's Medium (DMEM) (Cat. No.: SH30023.02, HyClone) supplemented with fetal bovine serum (FBS) 10% (Cat. No.: 16000044, Gibco) and 1% penicillin-streptomycin antibiotic cocktail (Cat. No.: SV30010, Hyclone).
# Cignal Lenti ATF6 luc reporter (Qiagen #CLS-6031L) was used to produce a stable cell line in U2-OS cells (U2-OS ATF6 TRE-luciferase reporter). The lenti ATF6 reporter is a preparation of replication incompetent, VSV-g pseudotyped lentivirus particles expressing the firefly luciferase gene under the control of a minimal (m)CMV promoter and tandem repeats of the ATF6 transcriptional response element (TRE). The number of response elements as well as the intervening sequence between response elements has been experimentally optimized to maximize the signal to noise ratio.
# Exemplary compounds of the invention and reference compounds were prepared from powder as 10 mM stock solutions in dimethyl sulfoxide (DMSO; Cat. No. #D2650, Sigma Aldrich) and stored at −80° C. in presence of N2 neutral atmosphere.
# For the primary screening, 40,000 U2-OS ATF6 TRE-luciferase reporter cells were plated in poly-D-lysine (Cat. No.: P2636, Sigma) pre-coated white 96-well plates (Thermo Scientific Nunc #136101) with 100 μL of growing medium. Cells were incubated in humidified chambers for 24 hr.
# For testing exemplary compounds in presence of ER-stress, cells were pre-treated for 30 min with 50 μL growing medium containing either vehicle (DMSO), 1 or 10 μM test compound. After this pre-incubation, 50 μL of a solution containing 0.2 μM of the ER stress-inducer thapsigargin (Tg) was added to the appropriate wells. The Tg solution also contains vehicle or test compounds at 1 or 10 μM as indicated. The final concentration of DMSO in each well was kept at 0.3%. Plates were incubated for 8 hr in humidified chambers.
# After the 8 hr incubation, plates were cooled down to room temperature for 10 min prior to the luciferase assays. Luciferase reactions were performed using Luciferase Assay System (Cat. No.: E4550, Promega). Briefly, each well was washed with 100 μl of PBS 1× and, then, 20 μl of lysis reagent was added into each well. Plates were shaken for 10 min and, then, 50 μl of Luciferase Assay Reagent was added to each well. Luminescence was determined by integration of 1 s with a gain of 110 in a Synergy 4 Microplate reader. All measurements were carried out in triplicate.
# The average activity determined from the wells containing vehicle only (DMSO, 0% of ATF6 activity) was used as blank and subtracted from the rest of measurements. The average activity determined from the wells containing Tg only was used as 100% of ATF6 activity. The percentage of modulation of exemplary compounds was calculated by normalizing values to potential maximal activation with Tg.
# ATF6 activities of exemplary compounds at 1 and 10 μM in presence Tg-induced ER stress tested in the U2-OS ATF6 TRE-luciferase reporter cells were determined and are shown in Table 2-2 and Table 3-2.
Structure (SMILES),activity at 1 µM (Table 2-2) [%],activity at 10 µM (Table 2-2) [%],ATF6 activity @ 1 μM [%] (Table 2-2),ATF6 activity @ 10 μM [%] (Table 2-2),ATF6 activity @ 1 μM [%] (Table 2-3),ATF6 activity @ 10 μM [%] (Table 2-3)
"CC(c1ccc(C(F)(F)F)cc1C(F)(F)F)n1cc(C#Cc2nnc(-c3ccccn3)s2)cn1 (stereo not drawn) [Compound 2-2, 2-((1-(1-(2,4-bis(trifluoromethyl)phenyl)ethyl)-1H-pyrazol-4-yl)ethynyl)-5-(pyridin-2-yl)-1,3,4-thiadiazole]",< 50,< 50,–,–,–,–
"CC(c1ccc(C(F)(F)F)cc1C(F)(F)F)n1cc(/C=C\c2nnc(-c3ccccn3)s2)cn1 (stereo not drawn) [Compound 2-7, (Z)-2-(2-(1-(1-(2,4-bis(trifluoromethyl)phenyl)ethyl)-1H-pyrazol-4-yl)vinyl)-5-(pyridin-2-yl)-1,3,4-thiadiazole]",–,–,+ (+ refers to 100% < % activity < 125% at 1 or 10 μM),− (− refers to 75% < % activity < 100% at 1 or 10 μM),–,–
"Cc1nn(C(C)c2ccc(C(F)(F)F)cc2C(F)(F)F)cc1C#Cc1nnc(-c2ccccn2)s1 (single isomer, unassigned) [Compound 2-24, 2-((1-(1-(2,4-bis(trifluoromethyl)phenyl)ethyl)-3-methyl-1H-pyrazol-4-yl)ethynyl)-5-(pyridin-2-yl)-1,3,4-thiadiazole]",–,–,−−− (−−− refers to <50% at 1 or 10 μM test compound),−−− (−−− refers to <50% at 1 or 10 μM test compound),–,–
"CC(c1ccc(C(F)(F)F)cc1C(F)(F)F)n1cc(C#Cc2nnc(-c3ccccn3)s2)cn1 (stereo not drawn) [Compound 2-1, 2-((1-(1-(2,4-bis(trifluoromethyl)phenyl)ethyl)-1H-pyrazol-4-yl)ethynyl)-5-(pyridin-2-yl)-1,3,4-thiadiazole]",–,–,−− (−− refers to 50% < % activity < 75% at 1 or 10 μM test compound),−−− (−−− refers to <50% at 1 or 10 μM test compound),–,–
"Cc1nn(C(C)c2ccc(C(F)(F)F)cc2C(F)(F)F)cc1C#Cc1nnc(-c2ccccn2)s1 (stereo not drawn) [Compound 2-11, 2-((1-(1-(2,4-bis(trifluoromethyl)phenyl)ethyl)-3-methyl-1H-pyrazol-4-yl)ethynyl)-5-(pyridin-2-yl)-1,3,4-thiadiazole]",50 to 75,50 to 75,–,–,–,–
"Cc1nn(C(C)c2ccc(C(F)(F)F)cc2C(F)(F)F)cc1C#Cc1nnc(-c2ccccn2)s1 (single isomer, unassigned) [Compound 2-23, 2-((1-(1-(2,4-bis(trifluoromethyl)phenyl)ethyl)-3-methyl-1H-pyrazol-4-yl)ethynyl)-5-(pyridin-2-yl)-1,3,4-thiadiazole]",–,50 to 75,− (− refers to 75% < % activity < 100% at 1 or 10 μM),–,–,–
"CC(c1ccc(C(F)(F)F)cc1C(F)(F)F)n1cc(/C=C\c2nnc(-c3ccccn3)s2)cn1 (stereo not drawn) [Compound 2-6, (Z)-2-(2-(1-(1-(2,4-bis(trifluoromethyl)phenyl)ethyl)-1H-pyrazol-4-yl)vinyl)-5-(pyridin-2-yl)-1,3,4-thiadiazole]",100 to 125,–,–,−− (−− refers to 50% < % activity < 75% at 1 or 10 μM test compound),–,–
"O=C(Nc1cnn(Cc2ccc(C(F)(F)F)cc2C(F)(F)F)c1)c1cc(-c2ccco2)on1 [Ceapin-A7, reference compound]",–,–,−−− (−−− refers to <50% at 1 or 10 μM test compound),−−− (−−− refers to <50% at 1 or 10 μM test compound),−−− (−−− refers to <50% at 1 or 10 μM test compound),−−− (−−− refers to <50% at 1 or 10 μM test compound)
"CC(c1ccc(C(F)(F)F)cc1C(F)(F)F)n1cc(/C=C/c2nnc(-c3ccccn3)s2)cn1 (stereo not drawn) [Compound 2-5, (E)-2-(2-(1-(1-(2,4-bis(trifluoromethyl)phenyl)ethyl)-1H-pyrazol-4-yl)vinyl)-5-(pyridin-2-yl)-1,3,4-thiadiazole]",100 to 125,< 50,–,–,–,–
"CC(c1ccc(C(F)(F)F)cc1C(F)(F)F)n1cc(CCc2nnc(-c3ccccn3)s2)cn1 (stereo not drawn) [Compound 2-9, 2-(2-(1-(1-(2,4-bis(trifluoromethyl)phenyl)ethyl)-1H-pyrazol-4-yl)ethyl)-5-(pyridin-2-yl)-1,3,4-thiadiazole]",75 to 100,< 50,–,–,–,–
"CC(c1ccc(C(F)(F)F)cc1C(F)(F)F)n1cc(C#Cc2nnc(-c3cnccn3)s2)cn1 (single isomer, unassigned) [Compound 2-22, 2-((1-(1-(2,4-bis(trifluoromethyl)phenyl)ethyl)-1H-pyrazol-4-yl)ethynyl)-5-(pyrazin-2-yl)-1,3,4-thiadiazole]",–,–,−− (−− refers to 50% < % activity < 75% at 1 or 10 μM test compound),− (− refers to 75% < % activity < 100% at 1 or 10 μM),–,–
"CC(c1ccc(C(F)(F)F)cc1C(F)(F)F)n1cc(/C=C\c2nnc(-c3ccccn3)s2)cn1 (stereo not drawn) [Compound 2-8, (Z)-2-(2-(1-(1-(2,4-bis(trifluoromethyl)phenyl)ethyl)-1H-pyrazol-4-yl)vinyl)-5-(pyridin-2-yl)-1,3,4-thiadiazole]",–,–,+ (+ refers to 100% < % activity < 125% at 1 or 10 μM),−− (−− refers to 50% < % activity < 75% at 1 or 10 μM test compound),–,–
"FC(F)(F)c1ccc(Cn2cc(C#Cc3nnc(-c4ccccn4)s3)cn2)c(C(F)(F)F)c1 [Compound 2-4, 2-((1-(2,4-bis(trifluoromethyl)benzyl)-1H-pyrazol-4-yl)ethynyl)-5-(pyridin-2-yl)-1,3,4-thiadiazole]",50 to 75,75 to 100,–,–,–,–
"CC(c1ccc(C(F)(F)F)cc1C(F)(F)F)n1cc(C#Cc2nnc(-c3cnccn3)s2)cn1 (single isomer, unassigned) [Compound 2-21, 2-((1-(1-(2,4-bis(trifluoromethyl)phenyl)ethyl)-1H-pyrazol-4-yl)ethynyl)-5-(pyrazin-2-yl)-1,3,4-thiadiazole]",–,75 to 100,− (− refers to 75% < % activity < 100% at 1 or 10 μM),–,–,–
